Measured values as given in US7238689B2, “Isoxazoline derivative and herbicide comprising the same as active ingredient” (Ihara Chemical Industry Co., Ltd., priority 2001, dated 2007).

What was measured:
Format in all cases: in vivo
Parameters in all cases: scale not given here
[1] = tested on: Echinochloa oryzicola Vasing; test: Herbicidal effect by paddy field soil treatment; conditions: wettable powder, active ingredient 1000 g/ha, examined at the 21st day from the treatment
Procedure: (§1) A paddy field soil was filled in a plastic pot of 100 cm^2 and subjected to puddling. Then, seeds of Echinochloa oryzicola Vasing and Monochoria vaginalis (Murm. f.) Presl var. plantaginea (Roxb.) Solms-Laub. were sowed and water was filled in a depth of 3 cm. Next day, wettable powders produced in accordance with the Formulation 1 were diluted with water and dropped on the water surface. The application amount of each wettable powder was 1,000 g per 1 hectare in terms of the active ingredient. Then, breeding was made in a greenhouse, and the herbicidal effect of each wettable powder was examined at the 21st day from the treatment in accordance with the standard shown in Table 21.

[2] = tested on: Monochoria vaginalis (Murm. f.) Presl var. plantaginea (Roxb.) Solms-Laub.; test: Herbicidal effect by paddy field soil treatment; conditions: wettable powder, active ingredient 1000 g/ha, examined at the 21st day from the treatment
Procedure: as §1

[3] = tested on: Echinochloa crus-galli (L.) Beauv. var. crusgalli; test: Herbicidal effect by upland field soil treatment; conditions: active ingredient 1000 g/ha, examined at 21st day from treatment
Description: (§2) An upland field soil was filled in a plastic pot of 80 cm^2. Seeds of Echinochloa crus-galli (L.) Beauv. var. crusgalli and Setaria viridis (L.) Beauv. were sowed, followed by covering with the same soil. […] Then, breeding was made in a greenhouse, and the herbicidal effect of each wettable powder was examined at the 21st day from the treatment in accordance with the standard shown in Table 21.

[4] = tested on: Setaria viridis (L.) Beauv.; test: Herbicidal effect by upland field soil treatment; conditions: active ingredient 1000 g/ha, examined at 21st day from treatment
Description: as §2

Row | SMILES | Herbicidal effect index, Echinochloa oryzicola Vasing [1] | Herbicidal effect index, Monochoria vaginalis (Burm. F.) Presl var. plantaginea (Roxb.) Solms-Laub. [2] | herbicidal effect (index per standard of Table 21), Echinochloa curs-galli (L.) Beauv. Var. crus-galli [3] | herbicidal effect (index per standard of Table 21), Setaria viridis (L.) Beauv. [4]
1 | CC1(C)CC(S(=O)(=O)Cc2c(Cl)nn(CC(N)=O)c2C(F)(F)F)=NO1 [3-0139] | 5 | 5 | 5 | 5
2 | CC1(C)CC(S(=O)(=O)Cc2c(C(F)(F)F)nn(-c3ccccc3)c2C(F)(F)F)=NO1 [3-0153] | 5 | 5 | 5 | 5
3 | CCOc1c(CS(=O)(=O)C2=NOC(C)(C)C2)c(C(F)(F)F)nn1-c1ccccc1 [3-0156] | 5 | 5 | 5 | 5
4 | CC1(C)CC(S(=O)(=O)Cc2c(C(F)(F)F)nn(-c3ncccn3)c2Cl)=NO1 [3-0173] | 5 | 5 | 5 | 5
5 | COc1cc(OC)nc(-n2nc(C(F)(F)F)c(CS(=O)(=O)C3=NOC(C)(C)C3)c2Cl)n1 [3-0174] | 5 | 5 | 5 | 5
6 | CCC1(C)CC(S(=O)(=O)Cc2c(C(F)(F)F)nn(C)c2Cl)=NO1 (centres unmarked) [3-0180] | 5 | 5 | 5 | 5
7 | Cc1onc(-c2ccccc2)c1CS(=O)(=O)C1=NOC(C)(C)C1 [4-0007] | 5 | 5 | 5 | 5
8 | CCOc1snc(C)c1CS(=O)(=O)C1=NOC(C)(C)C1 [4-0008] | 5 | 5 | 5 | 5
9 | CCOc1c(C)nn(-c2ccccc2)c1CS(=O)(=O)C1=NOC(C)(C)C1 [5-0005] | 5 | 5 | 5 | 4
10 | Cc1nn(-c2ccccc2)c(CS(=O)(=O)C2=NOC(C)(C)C2)c1OC(F)F [5-0006] | 5 | 5 | 5 | 5
11 | CC1(C)CC(S(=O)(=O)Cc2nn(-c3ccccc3)cc2OC(F)F)=NO1 [6-0003] | 5 | 5 | 5 | 5
12 | CC1(C)CC(S(=O)(=O)Cc2ccc[n+]([O-])c2)=NO1 [7-0004] | 5 | 5 | 5 | 4
13 | CC1(C)CC(S(=O)(=O)Cc2nc(-c3ccccc3)no2)=NO1 [9-0006] | 5 | 5 | 5 | 4
14 | CC1(C)CC(S(=O)(=O)Cc2sc3ccccc3c2Cl)=NO1 [10-0003] | 5 | 5 | 5 | 5
15 | CC1(C)CC(S(=O)(=O)Cn2nnc3ccccc32)=NO1 [10-0004] | 5 | 5 | 5 | 5
16 | Cn1ncc2c(CS(=O)(=O)C3=NOC(C)(C)C3)cccc21 [10-0005] | 5 | 5 | 5 | 5
17 | CC1(C)CC(S(=O)(=O)Cc2nc3ccccc3s2)=NO1 [10-0006] | 5 | 5 | 5 | 4
18 | CC1(C)CC(S(=O)(=O)Cc2nc3ccccc3o2)=NO1 [10-0009] | 5 | 5 | 5 | 5
19 | CC1(C)CC(S(=O)(=O)Cc2cc3ccccc3o2)=NO1 [10-0012] | 5 | 5 | 5 | 4
20 | Cc1cc2cccc(CS(=O)(=O)C3=NOC(C)(C)C3)c2o1 [10-0013] | 5 | 5 | 5 | 5
21 | CC1(C)CC(S(=O)(=O)Cc2oc3ccccc3c2Br)=NO1 [10-0014] | 5 | 5 | 5 | 5
22 | CC1(C)CC(S(=O)(=O)Cc2cccc3ccsc23)=NO1 [10-0015] | 5 | 5 | 5 | 5
23 | Cn1ncc2cccc(CS(=O)(=O)C3=NOC(C)(C)C3)c21 [10-0016] | 5 | 5 | 5 | 4
